Test results reported in US10986838B2, “Herbicides” (SYNGENTA PARTICIPATIONS AG, priority 2016, dated 2021).

Experiments:
Assay type in all cases: in vivo
[1] = tested on: Triticum aestivium (TRZAW); test: Pre-emergence herbicidal activity (B1); conditions: Test 1a, 1000 g/ha, evaluated after 13 days, 5=total damage to plant, 0=no damage to plant
Procedure, shortened: (§1)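 After one day of cultivation, soil pots were treated pre-emergence by spray with active ingredient in acetone/water (50:50) and 0.5% Tween 20. Evaluation at 13 days used a 0–5 scale, where 5 meant total plant damage.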

[2] = tested on: Echinochloa crus-galli (ECHCG); test: Pre-emergence herbicidal activity (B1); conditions: Test 1a, 1000 g/ha, evaluated after 13 days, 5=total damage to plant, 0=no damage to plant
Procedure, shortened: as §1

Avena fatua (AVEFA) [3] = test: Pre-emergence herbicidal activity (B1); conditions: Test 1a, 1000 g/ha, evaluated after 13 days, 5=total damage to plant, 0=no damage to plant
Procedure, shortened: as §1

[4] = tested on: Alopecurus myosuroides (ALOMY); test: Pre-emergence herbicidal activity (B1); conditions: Test 1a, 1000 g/ha, evaluated after 13 days, 5=total damage to plant, 0=no damage to plant
Procedure, shortened: as §1

Lolium perenne (LOLPE) [5] = test: Pre-emergence herbicidal activity (B1); conditions: Test 1a, 1000 g/ha, evaluated after 13 days, 5=total damage to plant, 0=no damage to plant
Procedure, shortened: as §1

Setaria faberi (SETFA) [6] = test: Pre-emergence herbicidal activity (B1); conditions: Test 1a, 1000 g/ha, evaluated after 13 days, 5=total damage to plant, 0=no damage to plant
Procedure, shortened: as §1

[7] = tested on: Triticum aestivium (TRZAW); test: Post-emergence herbicidal activity (B2); conditions: Test B2a, 1000 g/ha, evaluated after 13 days, 5=total damage to plant, 0=no damage to plant
Procedure, shortened: (§2)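 Plants grown for 8 days in a glasshouse (24/16 °C day/night, 14 h light, 65% humidity) were sprayed post-emergence with compound formulated in acetone/water 50:50 containing 0.5% Tween 20. Damage was scored 13 days later on a 0–5 scale (5 = total damage).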

[8] = tested on: Echinochloa crus-galli (ECHCG); test: Post-emergence herbicidal activity (B2); conditions: Test B2a, 1000 g/ha, evaluated after 13 days, 5=total damage to plant, 0=no damage to plant
Procedure, shortened: as §2

Avena fatua (AVEFA) [9] = test: Post-emergence herbicidal activity (B2); conditions: Test B2a, 1000 g/ha, evaluated after 13 days, 5=total damage to plant, 0=no damage to plant
Procedure, shortened: as §2

[10] = tested on: Alopecurus myosuroides (ALOMY); test: Post-emergence herbicidal activity (B2); conditions: Test B2a, 1000 g/ha, evaluated after 13 days, 5=total damage to plant, 0=no damage to plant
Procedure, shortened: as §2

Lolium perenne (LOLPE) [11] = test: Post-emergence herbicidal activity (B2); conditions: Test B2a, 1000 g/ha, evaluated after 13 days, 5=total damage to plant, 0=no damage to plant
Procedure, shortened: as §2

Setaria faberi (SETFA) [12] = test: Post-emergence herbicidal activity (B2); conditions: Test B2a, 1000 g/ha, evaluated after 13 days, 5=total damage to plant, 0=no damage to plant
Procedure, shortened: as §2

| SMILES | TRAZW damage score [1] | ECHCG damage score [2] | AVEFA damage score (Avena fatua (AVEFA) [3]) | ALOMY damage score [4] | LOLPE damage score (Lolium perenne (LOLPE) [5]) | SETFA damage score (Setaria faberi (SETFA) [6]) | TRAZW damage score [7] | ECHCG damage score [8] | AVEFA damage score (Avena fatua (AVEFA) [9]) | ALOMY damage score [10] | LOLPE damage score (Lolium perenne (LOLPE) [11]) | SETFA damage score (Setaria faberi (SETFA) [12]) |
| --- | --- | --- | --- | --- | --- | --- | --- | --- | --- | --- | --- | --- |
| Fc1cncc(-c2ccc(NCc3cscn3)c(C(F)(F)F)n2)c1 [Compound A57] | 0 | 5 | 3 | 1 | 1 | 5 | 2 | 5 | 4 | 1 | 4 | 5 |
| Cn1ccc(CNc2ccc(-c3cncc(F)c3)nc2C(F)(F)F)n1 [Compound A59] | 0 | 4 | 3 | 0 | 1 | 5 | 2 | 5 | 3 | 1 | 3 | 5 |
| Fc1cncc(-c2ccc(NCc3cnco3)c(C(F)(F)F)n2)c1 [Compound A60] | 0 | 5 | 3 | 0 | 1 | 5 | 2 | 5 | 3 | 1 | 4 | 5 |
| CN1CCN(c2ccc(-c3cncc(F)c3)nc2C(F)(F)F)CC1 [Compound A61] | 0 | 4 | 2 | 0 | 0 | 5 | 1 | 5 | 3 | 1 | 2 | 5 |
| Fc1cncc(-c2ccc(N3CC(F)(F)C(F)(F)C3)c(C(F)(F)F)n2)c1 [Compound A62] | 0 | 3 | 1 | 0 | 0 | 5 | 0 | 3 | 3 | 0 | 2 | 5 |
| Fc1cncc(-c2ccc(N3CCC3)c(C(F)(F)F)n2)c1 [Compound A63] | 0 | 2 | 0 | 0 | 0 | 5 | 0 | 3 | 3 | 0 | 2 | 5 |
| Fc1cncc(-c2ccc(N3CCCC3C(F)(F)F)c(C(F)(F)F)n2)c1 (stereo not drawn) [Compound A64] | 0 | 1 | 0 | 0 | 0 | 1 | 0 | 2 | 1 | 0 | 0 | 4 |
